Reference: patent publication US20090181075A1, “DROSPIRENONE CONTAINING TRANSDERMAL DRUG DELIVERY DEVICES AND METHODS OF DELIVERY THEREOF” (priority 2005, published 2009)

Assay: Drospirenone solubility in liquid excipients
Format: physicochemical
Details: weight-weight basis
Experimental: The solubility of drospirenone in liquid excipients was obtained using the following test method. Drospirenone was incrementally added to excipient until it stopped dissolving. The saturated solution was then filtered through a 0.45 μm polytetrafluoroethylene filter to remove excess drug particles. The concentration of drospirenone was then analyzed for drug using conventional high performance liquid chromatography methods. The values are reported as the percent solubility on a weight-weight basis.

- solubility of drospirenone (in benzyl alcohol): 44.4%
- solubility of drospirenone (in benzyl lactate): 22.6%
- solubility of drospirenone (in glyceryl monooleate): 2.0%
- solubility of drospirenone (in lauryl alcohol): 1.0%
- solubility of drospirenone (in lauryl lactate): 1.4%
- solubility of drospirenone (in methyl lactate): 11.6%
- solubility of drospirenone (in methyl laurate): 0.6%
SMILES: C[C@]12CCC(=O)C=C1[C@@H]1C[C@@H]1[C@H]1[C@@H]3[C@@H]4C[C@@H]4[C@@]4(CCC(=O)O4)[C@@]3(C)CC[C@@H]12 [drospirenone, 6β,7β,15β,16β-dimethylene-3-oxo-17α-pregn-4-ene-21,17-carbolactone]
